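96-well plates; 48 h exposure; 5 concentrations. Endpoints by linear interpolation between flanking doses. Not reached: highest tested concentration assigned. GI50 is the concentration that inhibits growth by half.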 Activity calls are given as the source filed them. Cut-off read from the data, not from the text of the source: active = GI50 up to about 1.1 µM and inactive = higher.
Assays:
Assay in all cases: NCI tumour cell line growth inhibition, 48 h
DLD-1 = tested on: DLD-1
EKVX = tested on: EKVX
KM12 = tested on: KM12
A549 = tested on: A549
COLO 205 = tested on: COLO 205
SF-268 = tested on: SF-268
CCRF-CEM = tested on: CCRF-CEM
SNB-75 = tested on: SNB-75
HOP-18 = tested on: HOP-18
NCI-H23 = tested on: NCI-H23
DMS-114 = tested on: DMS-114
HCT-116 = tested on: HCT-116
SK-OV-3 = tested on: SK-OV-3
SF-539 = tested on: SF-539
UO-31 = tested on: UO-31
HCT-15 = tested on: HCT-15
SW-620 = tested on: SW-620
SNB-78 = tested on: SNB-78
NCI-H522 = tested on: NCI-H522
786-0 = tested on: 786-0
HL-60 = tested on: HL-60
U-251 = tested on: U-251
SR = tested on: SR
A498 = tested on: A498
UACC-257 = tested on: UACC-257
OVCAR-4 = tested on: OVCAR-4
UACC-62 = tested on: UACC-62
HT-29 = tested on: HT-29
OVCAR-5 = tested on: OVCAR-5
SF-295 = tested on: SF-295
K562 = tested on: K562
Malme-3M = tested on: Malme-3M
IGROV-1 = tested on: IGROV-1
MOLT-4 = tested on: MOLT-4
LXFL 529 = tested on: LXFL 529
KM-20L2 = tested on: KM-20L2
DMS-273 = tested on: DMS-273
CAKI-1 = tested on: CAKI-1
M19-MEL = tested on: M19-MEL
OVCAR-3 = tested on: OVCAR-3
TK-10 = tested on: TK-10
SK-MEL-2 = tested on: SK-MEL-2
OVCAR-8 = tested on: OVCAR-8
HCC 2998 = tested on: HCC 2998
ACHN = tested on: ACHN
NCI-H460 = tested on: NCI-H460
HOP-92 = tested on: HOP-92
SK-MEL-28 = tested on: SK-MEL-28
XF498 = tested on: XF498
M14 = tested on: M14
SNB-19 = tested on: SNB-19
SN12C = tested on: SN12C
SK-MEL-5 = tested on: SK-MEL-5
NCI-H226 = tested on: NCI-H226
RXF 393 = tested on: RXF 393
LOX IMVI = tested on: LOX IMVI
RPMI-8226 = tested on: RPMI-8226
HOP-62 = tested on: HOP-62

Measured: GI50

O=Cc1ccccc1COC(=O)c1cc(C(=O)OCc2ccccc2C=O)c(C(=O)OCc2ccccc2C=O)cc1C(=O)OCc1ccccc1C=O
inactive: DLD-1 > 100 µM | EKVX > 100 µM | KM12 > 100 µM | A549 > 100 µM | COLO 205 > 100 µM | SF-268 69.2 µM | CCRF-CEM 43.4 µM | SNB-75 21.5 µM | HOP-18 > 100 µM | NCI-H23 > 100 µM | DMS-114 49.4 µM | HCT-116 31.9 µM | SK-OV-3 > 100 µM | SF-539 > 100 µM | UO-31 > 100 µM | SW-620 > 100 µM | SNB-78 40.7 µM | NCI-H522 > 100 µM | 786-0 23.6 µM | HL-60 38.2 µM | U-251 47.1 µM | SR 29.5 µM | A498 > 100 µM | UACC-257 > 100 µM | OVCAR-4 > 100 µM | UACC-62 > 100 µM | HT-29 > 100 µM | OVCAR-5 > 100 µM | SF-295 64.6 µM | K562 39.8 µM | Malme-3M > 100 µM | IGROV-1 > 100 µM | MOLT-4 30.3 µM | LXFL 529 46.3 µM | KM-20L2 > 100 µM | DMS-273 30.3 µM | CAKI-1 > 100 µM | M19-MEL > 100 µM | OVCAR-3 > 100 µM | TK-10 61.9 µM | SK-MEL-2 82.2 µM | OVCAR-8 80 µM | HCC 2998 > 100 µM | ACHN > 100 µM | NCI-H460 > 100 µM | HOP-92 31.6 µM | SK-MEL-28 > 100 µM | XF498 > 100 µM | M14 > 100 µM | SNB-19 > 100 µM | SN12C > 100 µM | SK-MEL-5 > 100 µM | NCI-H226 > 100 µM | RXF 393 31.3 µM | LOX IMVI 42 µM | RPMI-8226 43.7 µM
> 100 µM: HCT-15

Cc1c(C)c([N+](=O)[O-])c2c(c1N)C(=O)c1ccccc1C2=O
inactive: DLD-1 > 100 µM | EKVX > 100 µM | KM12 > 100 µM | A549 > 100 µM | COLO 205 58.9 µM | SF-268 > 100 µM | CCRF-CEM > 100 µM | SNB-75 > 100 µM | HOP-18 33 µM | NCI-H23 > 100 µM | DMS-114 > 100 µM | HCT-116 > 100 µM | SK-OV-3 > 100 µM | SF-539 > 100 µM | UO-31 > 100 µM | SW-620 > 100 µM | SNB-78 > 100 µM | NCI-H522 61.7 µM | 786-0 65.5 µM | HL-60 > 100 µM | U-251 > 100 µM | SR > 100 µM | A498 > 100 µM | UACC-257 > 100 µM | UACC-62 > 100 µM | HT-29 55.2 µM | OVCAR-5 > 100 µM | SF-295 > 100 µM | K562 > 100 µM | Malme-3M > 100 µM | IGROV-1 > 100 µM | MOLT-4 > 100 µM | LXFL 529 > 100 µM | KM-20L2 > 100 µM | DMS-273 > 100 µM | M19-MEL 90.8 µM | OVCAR-3 24.8 µM | TK-10 > 100 µM | SK-MEL-2 > 100 µM | OVCAR-8 > 100 µM | HCC 2998 > 100 µM | ACHN > 100 µM | HOP-62 > 100 µM | HOP-92 > 100 µM | SK-MEL-28 > 100 µM | XF498 > 100 µM | M14 > 100 µM | SNB-19 > 100 µM | SN12C > 100 µM | SK-MEL-5 > 100 µM | NCI-H226 > 100 µM | RXF 393 > 100 µM | LOX IMVI > 100 µM | RPMI-8226 > 100 µM
> 100 µM: HCT-15

Reference: ChEMBL document CHEMBL1201862, “PubChem BioAssay data set” (2004)
